Values after ≈ are worked out from the molar mass of the structure shown. “Also recorded” adds a separate entry of the source. Where two headings read alike, the source gives them in different places.
Tests used:
Format in all cases: cell-based
[1] = test system: 18 yeastlike and 3 Filamentus fungii; test: Agar dilution assay, whole panel; settings: for MIC: 48 h
Text: (§1) For the agar dilution assay, the test panel consisted of 18 yeastlike and 3 Filamentus fungii. Four media were used. These were yeast nitrogen base dextrose (0.5% agar) (YNBDA); pH 5.5; YNBDA with pH adjusted to pH 7.5; and micrological agar (MA), pH 7.0; and Sabouraud dextrose agar, pH 5.7. The media was manufactured by Difco (Detroit, MI) and prepared according to the manufacturer's instructions.
(§2) The test compounds were solubilized in 10% aqueous DMSO; the control drug, Nystatin, was solublized in 10% aqueous DMF. The drugs were serially diluted twofold in sterile water to yield concentrations of 1.28 mg/ml to […]. One ml of diluted drug was added to 9 ml of cooled (50° C.) molten agar in plastic petri plates to yield final drug concentrations in the agar ranging from 128 to 0.063 ug/ml. Appropriate solvent and media control plates were prepared as well, and all plates stored in the dark at 4° C. overnight. The yeast cultures, maintained in yeast maltose (YM; Difco), were transferred to fresh YM medium and incubating overnight at 37° C. with shaking at 250 rpm. After incubation each culture was diluted in sterile saline to yield concentrations of 3×10^5 to 3×10^6 cfu/ml. Isolates of aspergillis and penicillium were made on potato dextrose agar slants, and spore suspensions were made following vigorous shaking with sterile glass beads. The spore preparation were used as inocula for these fungi.
(§3) Each prepared place was inoculated with the 21-member panel using a Denleigh multipoint inoculator (Sussex, England). The inoculator delivers approximately 1 ul to the agar surface, resulting in inoculation of from 3×10^2 to 3×10^3 cfu. The plates were incubated at 28° C. for 48 h, and the minimum inhibitory concentrations (MIC) of each drug were recorded as the lower concentration of the drug permitting no growth or growth of less than 3 cfu/spot.

Candida albicans (10231) = test: Broth dilution assay, F1
Description: (§4) Both broth dilution and agar dilution assays were used to assess the antifungal activity of the compounds of the invention. The cultures were maintained in Sabouraud dextrose broth (SDB) and diluted with […]. 2.5 l of SDB was prepared and distributed into sterile vessels as follows: 49 ml into 1 vessel, 27 ml into 3 vessels, 45 ml into 2 vessels.
(§5) Five mg/ml concentration of each compound was prepared using DMSO as the solvent; warming and sonication were necessary to dissolve each compound completely. The compounds were then diluted in SDB according to the following protocol:
(§6) 5. 1 ug/ml--5 ml (3)+45 ml SDB
(§7) The compound at each concentration in SDB was then dispensed into 6 tubes each containing 4 ml […]. Controls (without any compound) were also prepared to insure that the solvent itself was not fungicidal or fungistatic.
(§8) Cultures were grown in SDB for 24 h at 30° C. C. albicans and C. neoformans were diluted 1:10 in SDB before inoculation. Inoculation volume for yeasts was 2 drops of diluted cells per tube. The fungal cultures were homogenized before inoculation. The same volume was added, but without dilution. All tubes were incubated at room temperature on a rotating wheel. After 16 h of incubation at room temperature, the fungistatic assay was set up on agar plates. […] Yeasts were inoculated onto SDA (the corresponding agar) plates and fungi onto mycosel agar plates. These plates were then incubated at room temperature.

[2] = test system: Epidermophyton floccosum (15693); test: Broth dilution assay, F4
Description: as §4, §5, §6, §7, §8

[3] = test system: Cryptococcus neoformans (13690); test: Broth dilution assay, F3
Description: as §4, §5, §6, §7, §8

Candida = test: Growth of Candida cultures with compound and/or SMX (FIG. 1)
[4] = test system: Microsporum gypseum (14683); test: Broth dilution assay, F12; settings: Nannizzia gypsea
Description: as §4, §5, §6, §7, §8

Ca. tropicalis MY1011 = test: Agar dilution assay; settings: Candida tropicalis, MY1011, 48 h, read-out: Minimum inhibitory concentration
Text: as §1, §2, §3

Cr. neoformans MY1146 = test: Agar dilution assay; settings: Cryptococcus neoformans, MY1146, 48 h, read-out: Minimum inhibitory concentration
Text: as §1, §2, §3

[5] = test system: Ca. tropicalis MY1012 (Nystatin resistant isolate); test: Agar dilution assay; settings: Candida tropicalis, 48 h
Text: as §1, §2, §3

Ca. parapsilosis MY1009 = test: Agar dilution assay; settings: MY1009, 48 h, read-out: Minimum inhibitory concentration
Text: as §1, §2, §3

Ca. albicans MY1029 = test: Agar dilution assay; settings: Candida albicans, MY1029, 48 h, read-out: Minimum inhibitory concentration
Text: as §1, §2, §3

[6] = test system: Ca. pseudotropicalis MY1040; test: Agar dilution assay; settings: Kluyveromyces marxianus, MY1040, 48 h, read-out: Minimum inhibitory concentration
Text: as §1, §2, §3

Ca. krusei MY1020 = test: Agar dilution assay; settings: Pichia kudriavzevii, MY1020, 48 h, read-out: Minimum inhibitory concentration
Text: as §1, §2, §3

**Q.** Which MIC ([1]; pH 5.7) does the source give for `CCCCCCCCc1ccc2nc(N)nc(N)c2c1C` [2,4-Diamino-5-methyl-6-n-octylquinazoline] here?
**A.** The MIC was greater than 128 µg/mL.

**Q.** What about the MIC ([1]; Candida tropicalis, pH 5.5) of the same compound?
**A.** Its MIC is no less than 128 µg/mL.

**Q.** What about the “antifungal activity in words” value ([1]; Table 3 panel) of the same compound?
**A.** Its value is “inhibitory for a large variety of yeast and Filamentus fungii; also recorded: extremely toxic with regard to a wide variety of fungi”.

**Q.** What about the MFC (Candida albicans (10231); Table 2, F1, Sabouraud Dextrose Broth pH 5.5, read-out: C Fungicidal) of the same compound?
**A.** The MFC was 100 µg/mL (≈ 349 µM).

**Q.** And the MIC (Candida albicans (10231); Table 2, F1, Sabouraud Dextrose Broth pH 5.5, read-out: S Fungistatic)?
**A.** Its MIC is 10 µg/mL (≈ 34.9 µM).

**Q.** And the MFC ([2]; Table 2, F4, Sabouraud Dextrose Broth pH 5.5, read-out: C Fungicidal)?
**A.** Its MFC is 30 µg/mL (≈ 105 µM).

**Q.** And the MIC ([2]; Table 2, F4, Sabouraud Dextrose Broth pH 5.5, read-out: S Fungistatic)?
**A.** The MIC was 1 µg/mL (≈ 3.49 µM).

**Q.** What about the MFC ([3]; Table 2, F3, Sabouraud Dextrose Broth pH 5.5, read-out: C Fungicidal) of the same compound?
**A.** The MFC was 3 µg/mL (≈ 10.5 µM).

**Q.** And the MIC ([3]; Table 2, F3, Sabouraud Dextrose Broth pH 5.5, read-out: S Fungistatic)?
**A.** Its MIC is 3 µg/mL (≈ 10.5 µM).

**Q.** And the “cfu/ml after 9 h” value (Candida; 10 ug compound + 100 ug SMX, after 9 h)?
**A.** Its value is 10^2 cfu/ml.

**Q.** And the “cfu/ml after 36 h” value (Candida; 10 ug compound + 100 ug SMX)?
**A.** Its value is “zero”.

**Q.** And the “cfu/ml after 36 h” value (Candida; 10 ug of compound alone)?
**A.** The value was 10^4 cfu/ml.

**Q.** And the “cfus after 9 h” value (Candida; 100 ug of each compound (with SMX), after 9 h)?
**A.** Its value is “no cfus”.

**Q.** And the “synergistic activity with sulfa drug” value (Candida; with sulfa drug (SMX in FIG. 1))?
**A.** The value was “synergistic activity”.

**Q.** And the MFC ([4]; Table 2, Sabouraud Dextrose Broth pH 5.5, read-out: C Fungicidal)?
**A.** Its MFC is 100 µg/mL (≈ 349 µM).

**Q.** And the MIC ([4]; Table 2, Sabouraud Dextrose Broth pH 5.5, read-out: S Fungistatic)?
**A.** Its MIC is 30 µg/mL (≈ 105 µM).

**Q.** What about the MIC (Ca. tropicalis MY1011; MA pH 7.0) of the same compound?
**A.** The MIC was 16 µg/mL (≈ 55.9 µM).

**Q.** What about the MIC (Ca. tropicalis MY1011; SDA pH 5.7) of the same compound?
**A.** The MIC was 128 µg/mL (≈ 447 µM).

**Q.** And the MIC (Ca. tropicalis MY1011; YNBDA pH 5.5)?
**A.** Its MIC is greater than 128 µg/mL.

**Q.** And the MIC (Ca. tropicalis MY1011; YNBDA pH 7.5)?
**A.** The MIC was 16 µg/mL (≈ 55.9 µM).

**Q.** And the MIC (Cr. neoformans MY1146; MA pH 7.0)?
**A.** Its MIC is 4 µg/mL (≈ 14 µM).

**Q.** And the MIC (Cr. neoformans MY1146; SDA pH 5.7)?
**A.** Its MIC is 16 µg/mL (≈ 55.9 µM).

**Q.** What about the MIC (Cr. neoformans MY1146; YNBDA pH 5.5) of the same compound?
**A.** Its MIC is 128 µg/mL (≈ 447 µM).

**Q.** What about the MIC (Cr. neoformans MY1146; YNBDA pH 7.5) of the same compound?
**A.** The MIC was 8 µg/mL (≈ 27.9 µM).

**Q.** What about the MIC ([5]; pH 5.5, read-out: Minimum inhibitory concentration) of the same compound?
**A.** Its MIC is 4 µg/mL (≈ 14 µM).

**Q.** What about the MIC ([5]; pH 5.7, read-out: Minimum inhibitory concentration) of the same compound?
**A.** Its MIC is 2 µg/mL (≈ 6.98 µM).

**Q.** What about the MIC ([5]; pH 7, read-out: Minimum inhibitory concentration) of the same compound?
**A.** The MIC was 2 µg/mL (≈ 6.98 µM).

**Q.** What about the MIC ([5]; pH 7.5, read-out: Minimum inhibitory concentration) of the same compound?
**A.** The MIC was 4 µg/mL (≈ 14 µM).

**Q.** And the MIC (Ca. parapsilosis MY1009; MA pH 7.0)?
**A.** Its MIC is 8 µg/mL (≈ 27.9 µM).

**Q.** And the MIC (Ca. parapsilosis MY1009; SDA pH 5.7)?
**A.** The MIC was greater than 128 µg/mL.

**Q.** And the MIC (Ca. parapsilosis MY1009; YNBDA pH 5.5)?
**A.** Its MIC is greater than 128 µg/mL.

**Q.** What about the MIC (Ca. parapsilosis MY1009; YNBDA pH 7.5) of the same compound?
**A.** Its MIC is 16 µg/mL (≈ 55.9 µM).

**Q.** What about the MIC (Ca. albicans MY1029; MA pH 7.0) of the same compound?
**A.** Its MIC is 32 µg/mL (≈ 112 µM).

**Q.** What about the MIC (Ca. albicans MY1029; SDA pH 5.7) of the same compound?
**A.** Its MIC is greater than 128 µg/mL.

**Q.** What about the MIC (Ca. albicans MY1029; YNBDA pH 5.5) of the same compound?
**A.** The MIC was greater than 128 µg/mL.

**Q.** What about the MIC (Ca. albicans MY1029; YNBDA pH 7.5) of the same compound?
**A.** Its MIC is 32 µg/mL (≈ 112 µM).

**Q.** And the MIC ([6]; MA pH 7.0)?
**A.** Its MIC is 4 µg/mL (≈ 14 µM).

**Q.** And the MIC ([6]; SDA pH 5.7)?
**A.** Its MIC is 128 µg/mL (≈ 447 µM).

**Q.** What about the MIC ([6]; YNBDA pH 5.5) of the same compound?
**A.** Its MIC is 128 µg/mL (≈ 447 µM).

**Q.** And the MIC ([6]; YNBDA pH 7.5)?
**A.** The MIC was 4 µg/mL (≈ 14 µM).

**Q.** What about the MIC (Ca. krusei MY1020; MA pH 7.0) of the same compound?
**A.** Its MIC is 8 µg/mL (≈ 27.9 µM).

**Q.** And the MIC (Ca. krusei MY1020; SDA pH 5.7)?
**A.** The MIC was greater than 128 µg/mL.

**Q.** And the MIC (Ca. krusei MY1020; YNBDA pH 5.5)?
**A.** Its MIC is greater than 128 µg/mL.

**Q.** What about the MIC (Ca. krusei MY1020; YNBDA pH 7.5) of the same compound?
**A.** The MIC was 8 µg/mL (≈ 27.9 µM).

Reference: patent US4818753A, “Synthesis and method of use for 2, 4 diaminoquinazoline” (SRI International, priority 1987, dated 1989)
